In patent US20200262787A1, “OPTICAL COMPONENT FORMING COMPOSITION AND CURED PRODUCT THEREOF” (Mitsubishi Gas Chemical Company, Inc., priority 2016, published 2020):

Experiment: Organic solvent solubility test of compound
Type: physicochemical
Conditions: compound in propylene glycol monomethyl ether acetate, 23° C., ultrasonic waves 30 minutes, visual
Experimental: The solubility of the compound in propylene glycol monomethyl ether acetate was measured as the solubility of the compound in an organic solvent.
A: 5.0% by mass Amount of dissolution
C: Amount of dissolution <3.0% by mass
With `Oc1ccc([Te](Cl)(Cl)c2ccc(O)cc2)cc1` [BHPT, bis(4-hydroxyphenyl)tellurium dichloride] the “Solubility in organic solvent” value was “A (5.0% by mass Amount of dissolution)”. For `CC1(OC(=O)COc2ccc([Te](Cl)(Cl)c3ccc(OCC(=O)OC4(C)C5CC6CC(C5)CC4C6)cc3)cc2)C2CC3CC(C2)CC1C3` (centres unmarked) [BHPT-ADBAC, bis(4-(2-methyl-2-adamantyloxycarbonylmethoxy)phenyl)tellurium dichloride], the “Solubility in organic solvent” value was “A (5.0% by mass Amount of dissolution)”. In the case of `CC(C)(C)OC(=O)Oc1ccc([Te](Cl)(Cl)c2ccc(OC(=O)OC(C)(C)C)cc2)cc1` [BHPT-BOC, bis(tert-butoxycarboxyphenyl)tellurium dichloride], the “Solubility in organic solvent” value was “A (5.0% by mass Amount of dissolution)”. For `CCOC(C)Oc1ccc([Te](Cl)(Cl)c2ccc(OC(C)OCC)cc2)cc1` (centres unmarked) [BHPT-EE, bis(ethoxyethylphenyl)tellurium dichloride], the “Solubility in organic solvent” value was “A (5.0% by mass Amount of dissolution)”. For `Oc1ccc([Te](Cl)(Cl)c2ccc(O)cc2O)cc1` [CCHT, (2,4-dihydroxyphenyl) (4-hydroxyphenyl)tellurium dichloride], the “Solubility in organic solvent” value was “A (5.0% by mass Amount of dissolution)”. With `CC1(OC(=O)COc2ccc([Te](Cl)(Cl)c3ccc(OCC(=O)OC4(C)C5CC6CC(C5)CC4C6)cc3OCC(=O)OC3(C)C4CC5CC(C4)CC3C5)cc2)C2CC3CC(C2)CC1C3` (centres unmarked) [CCHT-ADBAC] the “Solubility in organic solvent” value was “A (5.0% by mass Amount of dissolution)”. For `Oc1ccc([Te](Cl)(Cl)c2ccc(O)c(-c3ccccc3)c2)cc1-c1ccccc1` [Ph-BHPT, bis(3-phenyl-4-hydroxyphenyl)tellurium dichloride], the “Solubility in organic solvent” value was “A (5.0% by mass Amount of dissolution)”. For `CC1(OC(=O)COc2ccc([Te](Cl)(Cl)c3ccc(OCC(=O)OC4(C)C5CC6CC(C5)CC4C6)c(-c4ccccc4)c3)cc2-c2ccccc2)C2CC3CC(C2)CC1C3` (centres unmarked) [Ph-BHPT-ADBAC], the “Solubility in organic solvent” value was “A (5.0% by mass Amount of dissolution)”. In the case of `Oc1ccc([Te]c2ccc(O)c(-c3ccccc3)c2)cc1-c1ccccc1` [Ph-TDP, bis(3-phenyl-4-hydroxyphenyl)tellurium], the “Solubility in organic solvent” value was “A (5.0% by mass Amount of dissolution)”. For `CC1(OC(=O)COc2ccc([Te]c3ccc(OCC(=O)OC4(C)C5CC6CC(C5)CC4C6)c(-c4ccccc4)c3)cc2-c2ccccc2)C2CC3CC(C2)CC1C3` (centres unmarked) [Ph-TDP-ADBAC], the “Solubility in organic solvent” value was “A (5.0% by mass Amount of dissolution)”. With `CC(C)(C)OC(=O)COc1ccc([Te]c2ccc(OCC(=O)OC(C)(C)C)c(-c3ccccc3)c2)cc1-c1ccccc1` [Ph-TDP-BOC] the “Solubility in organic solvent” value was “A (5.0% by mass Amount of dissolution)”. In the case of `CCOC(C)Oc1ccc([Te](Cl)(Cl)c2ccc(OC(C)OCC)c(-c3ccccc3)c2)cc1-c1ccccc1` (centres unmarked) [Ph-TDP-EE], the “Solubility in organic solvent” value was “A (5.0% by mass Amount of dissolution)”. With `Oc1ccc([Te]c2ccc(O)cc2)cc1` [TDP, 4,4′-telluriumdiphenol] the “Solubility in organic solvent” value was “A (5.0% by mass Amount of dissolution)”. In the case of `CC1(OC(=O)COc2ccc([Te]c3ccc(OCC(=O)OC4(C)C5CC6CC(C5)CC4C6)cc3)cc2)C2CC3CC(C2)CC1C3` (centres unmarked) [TDP-ADBAC], the “Solubility in organic solvent” value was “A (5.0% by mass Amount of dissolution)”.
